We go through 48 compounds from US8609680B2, “2,3-dihydro-1H-inden-1-yl-2,7-diazaspiro[3.5] nonane derivatives” (Pfizer Inc., priority 2010, dated 2013).

One may read the IC50 as the concentration that inhibits the measured activity by half. A high value points to lower potency. The term Ki denotes the dissociation constant of the complex between target and ligand, obtained from inhibition or displacement.

This experiment concerns the target T1, human GHSR1a (Homo sapiens, UniProt Q92847).
T1 construct: expressed in transfected cells; host or cells: HEK293 Tetracycline-Inducible cell line, used as membranes
Description: Human Ghrelin SPA Binding Assay. From the text: The SPA format was utilized for high throughput screening of test compounds and filter binding served for more comprehensive binding characterization.
Human Ghrelin SPA Binding Assay

Where [1] appears, read: SPA format, [125I] ghrelin displacement, human GHSR1a membranes from HEK293 Tetracycline-Inducible cell line.

Like-named read-outs stand apart in the source and are kept apart here.

T1 sequence (Q92847 whole entry): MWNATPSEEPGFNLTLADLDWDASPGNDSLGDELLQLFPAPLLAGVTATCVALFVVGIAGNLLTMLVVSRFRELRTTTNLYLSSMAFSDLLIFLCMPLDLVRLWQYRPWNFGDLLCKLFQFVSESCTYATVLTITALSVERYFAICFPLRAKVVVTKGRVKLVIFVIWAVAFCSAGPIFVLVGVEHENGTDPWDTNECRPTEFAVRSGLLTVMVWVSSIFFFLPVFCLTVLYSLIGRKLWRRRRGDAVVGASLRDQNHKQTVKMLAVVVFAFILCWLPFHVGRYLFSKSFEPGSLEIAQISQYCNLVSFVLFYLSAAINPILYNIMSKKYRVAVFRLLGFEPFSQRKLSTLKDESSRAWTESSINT

In the case of `Cc1ccc(CC(=O)N2CCC3(CC2)CN([C@@H]2CCc4cc(-c5ncccn5)ccc42)C3)c(C(N)=O)c1` [Example 7A], the IC50 was 42.2 nM and the Ki stood at 37.5 nM.

`O=C(Cc1cc2n(n1)CCCC2)N1CCC2(CC1)CN(C1CCc3cc(-c4ncccn4)ccc31)C2` (racemic) [Example 5I]: the IC50 came out at 8.57 nM and affinity was put at a Ki of 9.26 nM.

For `COc1ccc(CC(=O)N2CCC3(CC2)CN([C@@H]2CCc4cc(-c5cc(C#N)ncn5)ccc42)C3)nc1` [Example 3AC], the IC50 was determined as 40.5 nM and the Ki turned out to be 33.8 nM.

The compound `COc1ccc(CC(=O)N2CCC3(CC2)CN(C2CCc4cc(-c5ccnc(C)n5)ccc42)C3)cc1` (centres unmarked) [Example 1D] gave an IC50 of 19.4 nM.

As to `CCc1ccc(CC(=O)N2CCC3(CC2)CN([C@@H]2CCc4cc(-c5cnc(C(N)=O)cn5)ccc42)C3)nc1` [Example 10H], the IC50 came out at 141 nM and the affinity corresponds to a Ki of 123 nM.

In the case of `COc1ccc(CC(=O)N2CCC3(CC2)CN(C2CCc4cc(-c5nccs5)ccc42)C3)nc1` (racemic) [Example 1F], the Ki came out at 22.8 nM.

The compound `CCn1ccc(CC(=O)N2CCC3(CC2)CN([C@@H]2CCc4cc(-c5ncccn5)ccc42)C3)n1` [Example 3AS] came in with an IC50 of 143 nM and a Ki of 122 nM.

Take `NC(=O)c1ccc(-c2ccc3c(c2)CC[C@H]3N2CC3(CCN(C(=O)Cc4cn5ccccc5n4)CC3)C2)cc1` [Example 4E]: the IC50 worked out at 42.6 nM and the Ki turned out to be 36.8 nM.

Turning to `O=C(Cc1cc2ccccn2n1)N1CCC2(CC1)CN(C1CCc3cc(-c4ncccn4)ccc31)C2` (racemic) [Example 5H], the IC50 stood at 5.9 nM.

`CCOc1ccc(CC(=O)N2CCC3(CC2)CN([C@@H]2CCc4cc(-n5nccn5)ccc42)C3)nc1` [Example 6G] showed an IC50 of 43.2 nM and an inhibition constant Ki of 34.4 nM.

`COc1ccc(CC(=O)N2CCC3(CC2)CN([C@@H]2CCc4ccccc42)C3)cc1` [Example 3AJ] returned an IC50 of 293 nM and a Ki of 261 nM.

For `COc1ccc(CC(=O)N2CCC3(CC2)CN(C2CCc4cc(-c5nccc(C)n5)ccc42)C3)cc1` (centres unmarked) [Example 1J], the IC50 was found to be 5.25 nM and the inhibition constant Ki was 5.12 nM.

Consider `Cc1ccc(CC(=O)N2CCC3(CC2)CN([C@@H]2CCc4cc(-c5ccn(C)n5)ccc42)C3)nc1` [Example 3J], for which the IC50 worked out at 52.9 nM and the Ki was 46.5 nM.

Compound `Cc1cc(-c2ccc3c(c2)CC[C@H]3N2CC3(CCN(C(=O)Cc4cn5nccnc5n4)CC3)C2)ncn1` [Example 3AY] had an IC50 of 495 nM and a Ki of 440 nM.

Compound `CCc1cc(-c2ccc3c(c2)CC[C@H]3N2CC3(CCN(C(=O)Cc4ccc(OC)cc4C#N)CC3)C2)ncn1` [Example 3AB] had an IC50 of 32.9 nM and a Ki of 28.8 nM.

`Cc1ccn2cc(CC(=O)N3CCC4(CC3)CN([C@@H]3CCc5cc(-c6cnc(C(N)=O)cn6)ccc53)C4)nc2c1` [Example 10B] returned an IC50 of 23.4 nM and a Ki of 20.3 nM.

Compound `COc1ccc(CC(=O)N2CCC3(CC2)CN(C2CCc4cc(-c5ncc(C)s5)ccc42)C3)nc1` (centres unmarked) [Example 1G] showed an IC50 of 7.56 nM and a Ki of 8.67 nM.

In turn, `COc1ccc(CC(=O)N2CCC3(CC2)CN(C2CCc4cc(-c5ncc(C)cn5)ccc42)C3)cc1` (racemic) [Example 1E] displayed an IC50 of 34.1 nM.

For the compound `Cc1ccc(CC(=O)N2CCC3(CC2)CN([C@@H]2CCc4cc(-c5ccc(C(N)=O)nc5)ccc42)C3)nc1` [Example 9C], the IC50 was 117 nM and the Ki was 102 nM.

Compound `NC(=O)c1ccc(-c2ccc3c(c2)CC[C@H]3N2CC3(CCN(C(=O)Cc4cn5ccccc5n4)CC3)C2)cn1` [Example 9E] yielded an IC50 of 33.7 nM and a Ki of 29.2 nM.

`COc1ccc(NC(C)=O)c(CC(=O)N2CCC3(CC2)CN([C@@H]2CCc4cc(-c5ncccn5)ccc42)C3)c1` [Example 3P] registered a 50% inhibitory concentration (IC50) of 36.3 nM and a Ki of 31.7 nM.

On to `Cc1ccc(CC(=O)N2CCC3(CC2)CN([C@@H]2CCc4cc(-c5ncccn5)ccc42)C3)cc1` [Example 5E], for which the IC50 was found to be 18.6 nM and the Ki came to 15.6 nM.

As for `COc1ccc(CC(=O)N2CCC3(CC2)CN([C@@H]2CCc4cc(-c5ccc(C(N)=O)nc5)ccc42)C3)nc1` [Example 9B], the IC50 came out at 55.2 nM and the affinity, expressed as Ki, was 47.5 nM.

`Cc1nn2cc(CC(=O)N3CCC4(CC3)CN([C@@H]3CCc5cc(-c6ncccn6)ccc53)C4)nc2s1` [Example 3O]: the IC50 amounted to 30.2 nM and the Ki is 28.1 nM.

`O=C(Cc1cn2ccccc2n1)N1CCC2(CC1)CN([C@@H]1CCc3cc(-c4ncccn4)ccc31)C2` [Example 3Q] displayed an IC50 of 26.6 nM and a Ki of 23 nM.

On to `COc1ccc(CC(=O)N2CCC3(CC2)CN([C@@H]2CCc4cc(-c5ncccn5)ccc42)C3)c(C(N)=O)c1` [Example 7B], for which the IC50 was determined as 25.5 nM and the affinity, expressed as Ki, was 22.2 nM.

Compound `Cc1cn2cc(CC(=O)N3CCC4(CC3)CN(C3CCc5cc(-c6ncccn6)ccc53)C4)nc2s1` (centres unmarked) [Example 1B] had a Ki of 4.59 nM. Moreover, the IC50 under setting [1] was found to be 3.79 nM.

As to `O=C(Cc1ccc(C2CC2)cc1)N1CCC2(CC1)CN(C1CCc3cc(-c4ncccn4)ccc31)C2` (racemic) [Example 5A, 7-[(4-Cyclopropylphenyl)acetyl]-2-(5-pyrimidin-2-yl-2,3-dihydro-1H-inden-1-yl)-2,7-diazaspiro[3.5]nonane], the IC50 came out at 7.02 nM and the Ki stood at 6.15 nM.

On to `Cc1cn2cc(CC(=O)N3CCC4(CC3)CN([C@@H]3CCc5cc(-c6ccc(C(N)=O)nc6)ccc53)C4)nc2s1` [Example 9D], for which the IC50 worked out at 12.2 nM and the Ki came to 10.6 nM.

`COc1ccc(CC(=O)N2CCC3(CC2)CN([C@@H]2CCc4cc(-n5cccn5)ccc42)C3)nc1` [Example 8C] displayed an IC50 of 82.3 nM and a Ki of 66.4 nM.

Consider `Cc1ccnc(-c2ccc3c(c2)CC[C@H]3N2CC3(CCN(C(=O)Cc4cn5nc(C)sc5n4)CC3)C2)n1` [Example 3Y], for which the IC50 amounted to 30.7 nM and affinity was put at a Ki of 25.9 nM.

In turn, `COc1ccc(CC(=O)N2CCC3(CC2)CN(C2CCc4cc(-c5ccc(C)cn5)ccc42)C3)nc1` (racemic) [Example 2D] gave an IC50 of 21.4 nM.

The compound `O=C(Cc1ccc(C(F)F)cn1)N1CCC2(CC1)CN([C@@H]1CCc3cc(-c4ncccn4)ccc31)C2` [Example 3AW] registered a half-inhibitory concentration (IC50) of 949 nM and a Ki of 785 nM.

In turn, `COc1ccc(CC(=O)N2CCC3(CC2)CN(C2CCc4cc(-c5nccs5)ccc42)C3)nc1` (centres unmarked) [Example 1F-1] gave a Ki of 3.98 nM. This compound also yielded an IC50 under setting [1] of 5.46 nM.

With `COc1ccc(CC(=O)N2CCC3(CC2)CN([C@@H]2CCc4cc(-c5ncco5)ccc42)C3)nc1` [Example 3AG], the IC50 was determined as 40.1 nM and the Ki was 33.1 nM.

`COc1ccc(CC(=O)N2CCC3(CC2)CN([C@@H]2CCc4cc(-n5cncn5)ccc42)C3)nc1` [Example 6I] gave an IC50 of 483 nM and a Ki of 417 nM.

In turn, `N#Cc1cc(-c2ccc3c(c2)CC[C@H]3N2CC3(CCN(C(=O)Cc4ccc(C5CC5)cn4)CC3)C2)ncn1` [Example 3AZ] showed an IC50 of 17.4 nM and a Ki of 15.4 nM.

In the case of `COc1ccc(CC(=O)N2CCC3(CC2)CN([C@@H]2CCc4cc(-c5ccc(C#N)nc5)ccc42)C3)nc1` [Example 4B, 5-[(1R)-1-{7-[(5-methoxypyridin-2-yl)acetyl]-2,7-diazaspiro[3.5]non-2-yl}-2,3-dihydro-1H-inden-5-yl]pyridine-2-carbonitrile], the IC50 was determined as 70.5 nM and the Ki worked out at 60.7 nM.

As for `O=C(Cc1ccc2c(n1)OCCO2)N1CCC2(CC1)CN([C@@H]1CCc3cc(-c4ncccn4)ccc31)C2` [Example 3R], the IC50 was 25.5 nM and the Ki is 22.2 nM.

Consider `O=C(Cc1ccc(C2CC2)cc1)N1CCC2(CC1)CN([C@@H]1CCc3cc(-c4ncccn4)ccc31)C2` [Example 5A-1, (R)-7-[(4-cyclopropylphenyl)acetyl]-2-(5-pyrimidin-2-yl-2,3-dihydro-1H-inden-1-yl)-2,7-diazaspiro[3.5]nonane], for which the IC50 stood at 4.5 nM and the Ki was found to be 3.77 nM.

With `COc1ccc(CC(=O)N2CCC3(CC2)CN([C@@H]2CCc4cc(-c5ccc(C(N)=O)cc5)ccc42)C3)nc1` [Example 4D], the IC50 worked out at 20.1 nM and the Ki was found to be 17.5 nM.

In the case of `CCc1ccc(CC(=O)N2CCC3(CC2)CN([C@@H]2CCc4cc(-n5nccn5)ccc42)C3)nc1` [Example 5D], the IC50 is 18.6 nM. Under “SPA format, [125I] ghrelin displacement, human GHSR1a membranes, Ki=IC50/(1+[ligand]/Kd)”, affinity was put at a Ki of 16.1 nM.

Regarding `Cc1nn2cc(CC(=O)N3CCC4(CC3)CN(C3CCc5cc(-n6nccn6)ccc53)C4)nc2s1` (centres unmarked) [Example 1H], the IC50 is 11.1 nM and the Ki was determined as 10.4 nM.

In turn, `Cc1ccc(CC(=O)N2CCC3(CC2)CN([C@@H]2CCc4cc(-n5nccn5)ccc42)C3)nc1` [Example 6A, 7-[(5-methylpyridin-2-yl)acetyl]-2-[5-(2H-1,2,3-triazol-2-yl)-2,3-dihydro-1H-inden-1-yl]-2,7-diazaspiro[3.5]nonane] displayed a Ki of 54.8 nM.

In turn, `CCc1ccc(CC(=O)N2CCC3(CC2)CN([C@@H]2CCc4cc(-c5ccc(C(N)=O)cc5)ccc42)C3)nc1` [Example 4C] came in with an IC50 of 49.3 nM and a Ki of 43.3 nM.

`Cc1cc(CC(=O)N2CCC3(CC2)CN([C@@H]2CCc4cc(-c5ncccn5)ccc42)C3)[nH]n1` [Example 3AX] returned an IC50 of 801 nM and a Ki of 691 nM.

Consider `Cc1ccnc(-c2ccc3c(c2)CCC3N2CC3(CCN(C(=O)Cc4cn5cc(C)sc5n4)CC3)C2)n1` (centres unmarked) [Example 1K], for which the IC50 came out at 25.9 nM.

In turn, `O=C(Cc1ccc(C(F)(F)F)cc1)N1CCC2(CC1)CN([C@@H]1CCc3cc(-c4ncccn4)ccc31)C2` [Example 3AH] yielded a concentration for half-maximal inhibition (IC50) of 90.2 nM and a Ki of 72.8 nM.
